This is an account of results in patent US6677277B1, “Substituted sulphonyl amino(thio)carbonyl compounds and their use as herbicides” (Bayer Aktiengesellschaft, priority 1996, dated 2004).

Holding throughout (format): in vivo
Data set [1] deals with Ipomoea. Put plainly: Post-emergence test/greenhouse. The note with it: 60 g ai./ha, rated after three weeks vs untreated control. The method, then: (§1) Post-emergence Test Solvent: 5 parts by weight of acetone Emulsifier: 1 part by weight of alkylaryl polyglycol ether To produce a suitable preparation of active compound, 1 part by weight of active compound is mixed with the stated amount of solvent, the stated amount of emulsifier is added and the concentrate is diluted with water to the desired concentration. Test plants which have a height of 5-15 cm are sprayed with the preparation of the active compound in such a way as to apply the particular amounts of active compound desired per unit area. The concentration of the spray liquor is chosen so that the particular amounts of active compound desired are applied in 1000 l of water/ha. After three weeks, the degree of damage to the plants is rated in % damage in comparison to the development of the untreated control. The figures denote: [table]

Data set [2] has as its system Solanum. Description: Post-emergence test/greenhouse. The note with it: post-emergence, 60 g ai./ha, rated after three weeks vs untreated control. On the procedure:
as §1

Data set [3] concerns Sorghum. Put plainly: Post-emergence test/greenhouse. The note with it: post-emergence, 60 g ai./ha, rated after three weeks vs untreated control. On the procedure: as §1
For data set [4], the system named is Stellaria. Put plainly: Post-emergence test/greenhouse. As to conditions: 60 g ai./ha, rated after three weeks vs untreated control. The method, then:
as §1

The subject of data set [5] is Xanthium. Put plainly: Post-emergence test/greenhouse. The note with it: post-emergence, 60 g ai./ha, rated after three weeks vs untreated control. On the procedure: as §1
In data set [6] the test system is weeds. Put plainly: Post-emergence test. As to conditions: cf. Tables B-1 to B-4. The method, then: as §1
Data set [7] has as its system Alopecurus. Put plainly: Pre-emergence test/greenhouse. The note with it: after three weeks. On the procedure: (§2) Pre-emergence Test Solvent: 5 parts by weight of acetone Emulsifier: 1 part by weight of alkylaryl polyglycol ether To produce a suitable preparation of active compound, 1 part by weight of active compound is mixed with the stated amount of solvent, the stated amount of emulsifier is added and the concentrate is diluted with water to the desired concentration. Seeds of the test plants are sown in normal soil. After about 24 hours, the soil is sprayed with the preparation of the active compound in such a way as to apply the particular amounts of active compound desired per unit area The concentration of the spray liquor is chosen so that the particular amounts of active compound desired are applied in 1000 l of water/ha. After three weeks, the degree of damage to the plants is rated in % damage in comparison to the development of the untreated control. The figures denote: [table]

Data set [8] has as its system Amaranthus. Put plainly: Pre-emergence test/greenhouse. The note with it: after three weeks. On the procedure:
as §2

The test system of data set [9] is Chenopodium. Description: Pre-emergence test/greenhouse. As to conditions: after three weeks. On the procedure: as §2
In data set [10] the test system is Lolium. Description: Pre-emergence test/greenhouse. As to conditions: after three weeks. The method, then:
as §2

The test system of data set [11] is Sorghum. Put plainly: Pre-emergence test/greenhouse. The note with it: after three weeks. On the procedure:
as §2

Data set [12] deals with weeds. Description: Pre-emergence test. The note with it: cf. Tables A-1 to A-5. The method, then: as §2
The subject of data set [13] is Maize. Description: Pre-emergence test/greenhouse. As to conditions: after three weeks. On the procedure: as §2
For data set [14], the system named is Matricaria. Put plainly: Pre-emergence test/greenhouse. The note with it: after three weeks. On the procedure: as §2
Data set [15] deals with Solanum. Description: Pre-emergence test/greenhouse. As to conditions: after three weeks. The method, then:
as §2

For data set [16], the system named is Wheat. Put plainly: Post-emergence test/greenhouse. The note with it: 60 g ai./ha, rated after three weeks vs untreated control. On the procedure: as §1

Consider `CCSc1cccc(SCC)c1S(=O)(=O)NC(=O)n1nc(OC)n(C)c1=O` [Example 46], for which, in data set [1], the “Ipomoea, % damage” value is listed as 9S. In data set [2], the “Solanum, % damage” value came out at 95%. In data set [3], the “Sorghum, % damage” value is 70%. Also, the “Stellaria, % damage” value in data set [4] is on record as 95%. Further, the “Xanthium, % damage” value in data set [5] was 100%. Further, the activity against weeds entry in data set [6] is “very strong activity”.
On to `COc1cccc(SCCF)c1S(=O)(=O)NC(=O)n1nc(OC)n(C)c1=O` [Example 57], for which the “% damage, Alopecurus” value in data set [7] (125 g ai./ha) came out at 100%. For the same molecule, the “% damage, Amaranthus” value in data set [8] (125 g ai./ha) was found to be 100%. For the same molecule, in data set [9] (125 g ai./ha), the “% damage, Chenopodium” value stood at 100%. In addition, in [10] (125 g ai./ha), the “% damage, Lolium” value stood at 100%. Also, in data set [11] (125 g ai./ha), the “% damage, Sorghum” value came to 100%. The activity against weeds result in [12] is “very strong activity”.
For the molecule `COc1nn(C(=O)NS(=O)(=O)c2c(OC(F)(F)F)cccc2SC)c(=O)n1C` [Example 32], in data set [7] (30 g ai./ha), the “% damage, Alopecurus” value is recorded as 90%. Besides, the “% damage, Amaranthus” value in [8] (30 g ai./ha) came to 100%. In [9] (30 g ai./ha), the “% damage, Chenopodium” value is recorded as 100%. For the same molecule, in data set [10] (30 g ai./ha), the “% damage, Lolium” value is given as 100%. The “% damage, Maize” value in data set [13] (30 g ai./ha) stood at 5%. Further, the “% damage, Matricaria” value in [14] (30 g ai./ha) stood at 90%. In addition, the “% damage, Solanum” value in [15] (30 g ai./ha) worked out at 95%. Also, the “% damage, Sorghum” value in data set [11] (30 g ai./ha) amounted to 90%. In data set [12], the activity against weeds entry is recorded as “very strong activity”.
In the case of `CCSc1cccc(OC(F)(F)F)c1S(=O)(=O)NC(=O)n1nc(CC)n(C)c1=O` [Example 39], the “Ipomoea, % damage” value in [1] is recorded as 80%. Moreover, the “Solanum, % damage” value in [2] came out at 95%. Also, in data set [3], the “Sorghum, % damage” value turned out to be 80%. In [4], the “Stellaria, % damage” value came to 90%. For the same molecule, in data set [16], the “Wheat, % damage” value amounted to 20%. Moreover, in data set [5], the “Xanthium, % damage” value stood at 95%. For the same molecule, in data set [6], the activity against weeds entry is listed as “very strong activity”.
Take `CCSc1cccc(OC)c1S(=O)(=O)NC(=O)n1nc(CC)n(C)c1=O` [Example 8]: the “% damage, Alopecurus” value in [7] (125 g ai./ha) was found to be 100%. The “% damage, Amaranthus” value in data set [8] (125 g ai./ha) amounted to 100%. Moreover, the “% damage, Chenopodium” value in data set [9] (125 g ai./ha) was determined as 100%. Also, the “% damage, Lolium” value in [10] (125 g ai./ha) came out at 80%. For the same molecule, in data set [13] (125 g ai./ha), the “% damage, Maize” value was 0%. The “% damage, Solanum” value in [15] (125 g ai./ha) is 60%. In addition, the activity against weeds result in data set [12] was “very strong activity”.
Consider `CSc1cccc(OC(F)(F)F)c1S(=O)(=O)NC(=O)n1nc(SC)n(C)c1=O` [Example 33], for which the “% damage, Alopecurus” value in [7] (125 g ai./ha) amounted to 100%. Further, the “% damage, Amaranthus” value in [8] (125 g ai./ha) is recorded as 100%. For the same molecule, the “% damage, Chenopodium” value in data set [9] (125 g ai./ha) is 100%. Also, the “% damage, Lolium” value in data set [10] (125 g ai./ha) is 100%. Further, the “% damage, Maize” value in [13] (125 g ai./ha) came out at 10%. Moreover, the “% damage, Matricaria” value in data set [14] (125 g ai./ha) worked out at 100%. In addition, in data set [15] (125 g ai./ha), the “% damage, Solanum” value came out at 100%. Also, the “% damage, Sorghum” value in data set [11] (125 g ai./ha) turned out to be 100%. In [12], the activity against weeds result is “very strong activity”.
Regarding `CCOc1nn(C(=O)NS(=O)(=O)c2c(SCC)cccc2SCC)c(=O)n1C` [Example 43], the “Ipomoea, % damage” value in data set [1] is listed as 95%. Moreover, in data set [2], the “Solanum, % damage” value is listed as 95%. Also, the “Sorghum, % damage” value in data set [3] came out at 70%. Besides, the “Stellaria, % damage” value in [4] was 90%. Further, the “Wheat, % damage” value in data set [16] was 20%. Further, the “Xanthium, % damage” value in data set [5] came to 100%. Further, the activity against weeds result in [6] is given as “very strong activity”.
For `CCOc1nn(C(=O)NS(=O)(=O)c2c(C)cccc2SC)c(=O)n1C` [Example 48], the “Ipomoea, % damage” value in data set [1] is on record as 90%. Further, in data set [2], the “Solanum, % damage” value stood at 90%. Moreover, in [3], the “Sorghum, % damage” value was 100%. In addition, the “Stellaria, % damage” value in data set [4] was determined as 60%. In addition, the “Wheat, % damage” value in [16] is on record as 5%. The “Xanthium, % damage” value in [5] came to 95%. Moreover, the activity against weeds entry in data set [6] is on record as “very strong activity”.
